Source: US6943170B2, “N-cycloalkylglycines as HIV protease inhibitors” (Bristol-Myers Squibb Company, priority 2002, dated 2005)
≈ marks a conversion by molar mass, not a printed value.

System: HIV-1 (RF)
Test: HIV RNA assay: microplate based compound evaluation in HIV-1 infected MT-2 cells
Type: cell-based
Conditions: Human immunodeficiency virus 1, MT2, 72 h; HIV-1 (RF) infected MT-2 cells, 3 days culture; value used to standardize the virus inoculum; read-out: IC90 (concentration of compound required to reduce the HIV RNA level by 90%)
Experimental: Plasmid PDAB 72 containing both gag and pol sequences of BH10 (bp 113-1816) cloned into PTZ 19R was prepared according to Erickson-Vitanen et al. AIDS Research and Human Retroviruses 1989, 5, 577. The plasmid was linearized with Bam HI prior to the generation of in vitro RNA transcripts using the Riboprobe Gemini system II kit (Promega) with T7 RNA polymerase. Synthesized RNA was purified by treatment with RNase free DNAse (Promega), phenol-chloroform extraction, and ethanol precipitation. RNA transcripts were dissolved in water, and stored at −70EC. The concentration of RNA was determined from the A260.
Biotinylated capture probes were purified by HPLC after synthesis on an Applied Biosystems (Foster city, Calif.) DNA synthesizer by addition of biotin to the 5N terminal end of the oligonucleotide, using the biotin-phosphoramidite reagent of Cocuzza, Tet. Lett. 1989, 30, 6287. […]
MT-2 and MT-4 cells were maintained in RPMI 1640 supplemented with 5% fetal calf serum (FCS) for MT-2 cells or 10% FCS for MT-4 cells, 2 mM L-glutamine and 50 μg/mL gentamycin, all from Gibco. […] Infectious titers of HIV-1 (RF) stocks were 1-3×10^7 PFU (plaque forming units)/mL as measured by plaque assay on MT-2 cells (see below). […]

Nc1ccn([C@H]2CC[C@@H](CO)O2)c(=O)n1 [ddC, dideoxycytidine]
IC90: 0.2 µg/mL (≈ 0.947 µM)
